Data published in patent publication US7514446B2, “Pyrimidine compounds” (SmithKline Beecham Corporation, priority 2003, dated 2009).
Where a name gives a salt, the structure may show the parent alone.

Experiments:
[1] = biological target: T1, PLK1 kinase domain (Homo sapiens, UniProt P53350); experiment: Assay for inhibition of PLK1 (SPA, 33P-ATP, His-tagged PLK kinase domain); type: biochemical; settings: 2 μM ATP, read-out: Ave pIC50 PLK Enzyme Inhibition (converted)
T1 construct: made in house; host or cells: baculovirus-infected T. ni insect cells
T1 sequence (P53350 21-346): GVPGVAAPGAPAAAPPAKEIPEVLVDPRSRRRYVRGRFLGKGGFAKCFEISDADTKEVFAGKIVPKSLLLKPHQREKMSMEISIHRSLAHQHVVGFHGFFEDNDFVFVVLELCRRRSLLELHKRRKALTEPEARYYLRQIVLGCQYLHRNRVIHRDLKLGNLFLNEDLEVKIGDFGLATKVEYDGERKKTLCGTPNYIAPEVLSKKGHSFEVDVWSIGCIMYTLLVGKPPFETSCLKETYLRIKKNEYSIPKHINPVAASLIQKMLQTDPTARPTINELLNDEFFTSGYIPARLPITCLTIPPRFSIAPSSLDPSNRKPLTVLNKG
Procedure: I. Assay for Inhibition of PLK1
A. Preparation of 6× N-terminal His-tagged PLK Kinase Domain
6× N-terminal His-tagged PLK kinase domain (amino acids 21-346 preceded by […]) was prepared from baculovirus infected T. ni cells under polyhedrin promoter control. All procedures were performed at 4° C. Cells were lysed in 25 mM HEPES, 200 mM NaCl, 25 mM imidazole; pH 8.0. The homogenate was centrifuged at 14K rpm in a SLA-1500 rotor for 40 min and the supernatant filtered through a 1.2 micron filter. The supernatant was loaded onto a Nickel chelating Sepharose (Amersham Pharmacia) column and washed with 25 mM HEPES, 500 mM NaCl, 25 mM imidazole; pH 8.0. The column was then washed with a 16.6% B step where buffer B is 25 mM HEPES, 500 mM NaCl, 300 mM imidazole; pH 8.0. Protein was eluted using a 10-column volume linear gradient from 16.6% B to 100% B. Fractions containing PLK were determined by SDS-PAGE. PLK was concentrated using a 10 kDa molecular weight cutoff membrane and then loaded onto a Superdex 75 gel filtration (Amersham Pharmacia) column equilibrated in 25 mM HEPES, 1 mM DTT, 500 mM NaCl; pH 8.0. Fractions containing PLK were determined by SDS-PAGE. PLK was pooled, aliquoted and stored at −80° C. Samples were quality controlled using mass spectrometry.
B. Enzyme Activity+/−Inhibitors was Determined as Follows:
Compounds were added to the plate (1 μl in 100% DMSO). DMSO (2% final) and EDTA (55.5 mM final) were used as controls. Reaction Mix A is prepared as follows at 4° C.:
Reaction Mix A (substrate Mix): • 25 mM HEPES, pH 7.2 • 15 mM MgCl2 • 2 μM ATP • 0.1 μCi/well ^33P-γ ATP (10 Ci/mMol) • 2 μM substrate peptide (Biotin-Ahx-[…]) Reaction Mix B is prepared as follows at 4° C.:
Reaction Mix B (Enzyme Mix) • 25 mM HEPES, pH 7.2 • 15 mM MgCl2 • 0.15 mg/ml BSA • 2 mM DTT • 2-10 nM PLK1 kinase domain
Reaction Mix A (20 μl) is added per well. Reaction Mix B (20 μl) is added per well. Incubate 1.5 hrs. at RT. The enzymatic reaction is stopped with 175 μl of SPA/EDTA bead mix (29 mM EDTA, 2.5 mg/ml Streptavidin-coated SPA in Standard Dulbecco's PBS (without Mg^2+ and Ca^2+), 60 μM ATP). Plates are sealed spun (after a 1 hr incubation at RT) at 1,000×g for 7 min or settled overnight, then plates counted in Packard TopCount for 30 seconds/well.

[2] = test system: Normal Human foreskin fibroblasts (HFF); experiment: Methylene Blue Growth Inhibition Assay, HFF; type: cell-based; settings: 72 h, HFF cells, 3 days, read-out: MeB Cell Line IC50
Procedure: (§1) II. Methylene Blue Growth Inhibition Assay
(§2) Normal Human foreskin fibroblasts (HFF) and human colon (HCT116, RKO), lung (H460), prostate (PC3), and breast tumor (MCF7) cell lines were cultured in high glucose DMEM (Life Technologies) containing 10% fetal bovine serum (FBS) at 37° C. in a humidified 10% CO2, 90% air incubator. Cells were harvested using trypsin/EDTA, counted using a haemocytometer, and plated in 100 μl of the appropriate media, at the following densities, in a 96-well tissue culture plate (Falcon 3075): HFF 5,000 cells/well, HCT116 3,000 cells/well, RKO 2,500 cells/well, H460 2,000 cells/well, PC3 8,000 cells/well, MCF7 4,000 cells/well. The next day, compounds were diluted in DMEM containing 100 μg/ml gentamicin, at twice the final required concentration, from 10 mM stock solutions in DMSO. 100 μl/well of these dilutions were added to the 100 μl of media currently on the cell plates. Medium containing 0.6% DMSO was added to control wells. Compounds diluted in DMEM were added to all cell lines. The final concentration of DMSO in all wells was 0.3%. Cells were incubated at 37° C., 10% CO2 for 3 days. Medium was removed by aspiration. Cell biomass was estimated by staining cells with 90 μl per well methylene blue (Sigma M9140, 0.5% In 50:50 ethanol:water), and incubation at room temperature for at least 30 minutes. Stain was removed, and the plates rinsed under a gentle stream of water, and air-dried. To release stain from the cells 100 μl of solubilization solution was added (1% N-lauroyl sarcosine, Sodium salt, Sigma L5125, in PBS), and plates were shaken gently for about 30 minutes. Optical density at 620 nm was measured on a microplate reader. Percent inhibition of cell growth was calculated relative to vehicle treated control wells. Concentration of compound that inhibits 50% of cell growth (IC50) was interpolated using nonlinear regression (Levenberg-Marquardt) and the equation, y=Vmax*(1−(x/(K+x)))+Y2, where “K” was equal to the IC50. In Table 1, +=10->30 uM; ++=1-10 uM: +++=<1 uM.

[3] = test system: H460 lung tumor cell line; experiment: Methylene Blue Growth Inhibition Assay, H460; type: cell-based; settings: Homo sapiens, NCI-H460, 72 h; H460 cells, 3 days; read-out: MeB Cell Line IC50
Procedure: as §1, §2

[4] = test system: RKO colon tumor cell line; experiment: Methylene Blue Growth Inhibition Assay, RKO; type: cell-based; settings: Homo sapiens, 72 h; RKO cells, 3 days; read-out: MeB Cell Line IC50
Procedure: as §1, §2

[5] = test system: HCT116 colon tumor cell line; experiment: Methylene Blue Growth Inhibition Assay, HCT116; type: cell-based; settings: Homo sapiens, HCT-116, 72 h; HCT116 cells, 3 days; read-out: MeB Cell Line IC50
Procedure: as §1, §2

[6] = test system: MCF7 breast tumor cell line; experiment: Methylene Blue Growth Inhibition Assay, MCF7; type: cell-based; settings: Homo sapiens, 72 h; MCF7 cells, 3 days; read-out: MeB Cell Line IC50
Procedure: as §1, §2

[7] = test system: PC3 prostate tumor cell line; experiment: Methylene Blue Growth Inhibition Assay, PC3; type: cell-based; settings: Homo sapiens, PC-3, 72 h; PC3 cells, 3 days; read-out: MeB Cell Line IC50
Procedure: as §1, §2

SMILES	IC50 [1] [nM]	also measured
COc1cc(Nc2ncc([N+](=O)[O-])c(Nc3ccccc3C(=O)O)n2)cc(OC)c1OC [Example 1, 2-({5-nitro-2-[(3,4,5-trimethoxyphenyl)amino]pyrimidin-4-yl}amino)benzoic acid hydrochloride]	< 100	–
COc1cc(Nc2ncc([N+](=O)[O-])c(Nc3ccccc3C(N)=O)n2)cc(OC)c1OC [Example 3, 2-({5-nitro-2-[(3,4,5-trimethoxyphenyl)amino]pyrimidin-4-yl}amino)benzamide hydrochloride]	–	IC50 [2]: 1000 to 10000 nM; IC50 [3]: < 1000 nM; IC50 [4]: < 1000 nM; IC50 [5]: < 1000 nM; IC50 [6]: < 1000 nM; IC50 [7]: 1000 to 10000 nM
COc1cc(Nc2ncc([N+](=O)[O-])c(Nc3ccccc3C(=O)NC(C)(C)C)n2)cc(OC)c1OC [Example 5, N-(tert-butyl)-2-({5-nitro-2-[(3,4,5-trimethoxyphenyl)amino]pyrimidin-4-yl}amino)benzamide hydrochloride]	< 100	IC50 [2]: 1000 to 10000 nM; IC50 [3]: 1000 to 10000 nM; IC50 [4]: 1000 to 10000 nM; IC50 [5]: 1000 to 10000 nM; IC50 [6]: 1000 to 10000 nM; IC50 [7]: 1000 to 10000 nM
COc1cc(Nc2ncc(Br)c(Nc3ccccc3C(C)=O)n2)cc(OC)c1OC [Example 11, 1-[2-({5-bromo-2-[(3,4,5-trimethoxyphenyl)amino]pyrimidin-4-yl}amino)phenylethanone hydrochloride]	< 100	–
CNC(=O)c1ccccc1Nc1nc(Nc2ccc(NC(C)=O)cc2)ncc1[N+](=O)[O-] [Example 13, 2-[(2-{[4-(acetylamino)phenyl]amino}-5-nitropyrimidin-4-yl)amino]-N-methylbenzamide hydrochloride]	< 100	–
COC(=O)c1ccccc1Nc1nc(Nc2cc(OC)c(OC)c(OC)c2)ncc1[N+](=O)[O-] [Example 17, Methyl 2-({5-nitro-2-[(3,4,5-trimethoxyphenyl)amino]pyrimidin-4-yl}amino)benzoate hydrochloride]	< 100	–
CC(=O)Nc1ccc(Nc2ncc([N+](=O)[O-])c(Nc3ccccc3C(=O)OC3CCCCC3)n2)cc1 [Example 21, Cyclohexyl 2-[(2-{[4-(acetylamino)phenyl]amino}-5-nitropyrimidin-4-yl)amino]benzoate hydrochloride]	< 100	–
CC(=O)Nc1ccc(Nc2ncc([N+](=O)[O-])c(Nc3ccccc3C(=O)O)n2)cc1 [Example 23, 2-[(2-{[4-(Acetylamino)phenyl]amino}-5-nitropyrimidin-4-yl)amino]benzoic acid hydrochloride]	< 100	–
CC(=O)Nc1ccc(Nc2ncc(Br)c(Nc3ccccc3C(C)=O)n2)cc1 [Example 24, N-[4-({4-[(2-Acetylphenyl)amino]-5-bromopyrimidin-2-yl}amino)phenyl]acetamide hydrochloride]	< 100	–
CC(=O)Nc1ccc(Nc2ncc(Br)c(Nc3ccccc3N3CCOCC3)n2)cc1 [Example 25, N-[4-({5-Bromo-4-[(2-morpholin-4-ylphenyl)amino]pyrimidin-2-yl}amino)phenyl]acetamide hydrochloride]	< 100	–
COc1cc(Nc2ncc(Br)c(Nc3ccccc3N3CCOCC3)n2)cc(OC)c1OC [Example 27, 5-Bromo-N^4-(2-morpholin-4-ylphenyl)-N^2-(3,4,5-trimethoxyphenyl)-pyrimidine-2,4-diamine hydrochloride]	100 to 10000	–
COc1cc(Nc2nc(Nc3ccc(NC(C)=O)cc3)ncc2Br)cc(OC)c1OC [Example 28, N-[4-(5-Bromo-4-[(3,4,5-trimethoxyphenyl)amino]pyrimidin-2-yl}amino)phenyl]acetamide hydrochloride]	> 10000	–
COC(=O)c1ccc(C(=O)OC)c(Nc2nc(Nc3ccc(NC(C)=O)cc3)ncc2[N+](=O)[O-])c1 [Example 29, Dimethyl 2-[(2-{[4-(acetylamino)phenyl]amino}-5-nitropyrimidin-4-yl)amino]terephthalate hydrochloride]	100 to 10000	–
CC(=O)Nc1ccc(Nc2ncc([N+](=O)[O-])c(Nc3ccccc3C(=O)OCc3ccccc3)n2)cc1 [Example 30, Benzyl 2-[(2-{[4-(acetylamino)phenyl]amino}-5-nitropyrimidin-4-yl)amino]benzoate hydrochloride]	100 to 10000	–
COC(=O)c1c(C)cccc1Nc1nc(Nc2ccc(NC(C)=O)cc2)ncc1[N+](=O)[O-] [Example 31, Methyl 2-[(2-{[4-(acetylamino)phenyl]amino}-5-nitropyrimidin-4-yl)amino]-6-methylbenzoate hydrochloride]	< 100	–
CC(=O)Nc1ccc(Nc2ncc([N+](=O)[O-])c(Nc3ccccc3C(=O)OCC(C)C)n2)cc1 [Example 32, Isobutyl 2-[(2-{[4-(acetylamino)phenyl]amino}-5-nitropyrimidin-4-yl)amino]benzoate hydrochloride]	< 100	–
CC(=O)Nc1ccc(Nc2ncc([N+](=O)[O-])c(Nc3cccc(C)c3C(=O)O)n2)cc1 [Example 33, 2-[(2-{[4-(Acetylamino)phenyl]amino}-5-nitropyrimidin-4-yl)amino]-6-methylbenzoic acid hydrochloride]	< 100	–
COc1cc(Nc2ncc([N+](=O)[O-])c(Nc3ccccc3C(C)=O)n2)cc(OC)c1OC [Example 35, 1-[2-({5-Nitro-2-[(3,4,5-trimethoxyphenyl)amino]pyrimidin-4-yl}amino)phenyl]ethanone hydrochloride]	< 100	–
COc1cc(Nc2ncc([N+](=O)[O-])c(Nc3cccc4ccc(O)cc34)n2)cc(OC)c1OC [Example 37, 8-({5-Nitro-2-[(3,4,5-trimethoxyphenyl)amino]pyrimidin-4-yl}amino)-2-naphthol hydrochloride]	< 100	–
COc1cc(Nc2ncc(C(C)=O)c(Nc3ccccc3C(=O)NC(C)(C)C)n2)cc(OC)c1OC [Example 38, N-(tert-butyl)-2-({5-methyl ketone-2-[(3,4,5-trimethoxyphenyl)amino]pyrimidin-4-yl}amino) benzamide]	< 100	–
